Patent US8895581B2, “1H-imidazo[4,5-c]quinolines” (Boehringer Ingelheim International GmbH, priority 2010, dated 2014)

These compounds were tested against Recombinant human PDK1 enzyme (aa 52-556) (Homo sapiens (Human), UniProt O15530) (assay: PDK1 kinase assay). Details: 25 μM ATP solution with gamma-P33-ATP, PDKtide substrate, 90 min at RT.
Type: biochemical
Experimental: The activity of the compounds according to the invention on the kinase PDK1 which inhibits the signal transduction pathway is determined in an in vitro kinase assay with recombinantly prepared protein:
Recombinant human PDK1 enzyme (aa 52-556) linked at its N-terminal end to His6 is isolated from baculovirus-infected insect cells. Purified enzyme may be obtained for example from the University of Dundee, Scotland. The following components are combined in a well of a 96-well round-based dish (Greiner bio-one, No. 650101): • 1. 15 μL of compound to be tested in varying concentrations (e.g. starting at 10 μM, and diluted in steps of 1:5) in APT buffer (50 mM Tris/Cl pH7.5; 0.05% β-mercaptoethanol; 10 mM Mg-acetate; 0.0166% Tween 20; 3.33% DMSO) • 2. 15 μL His6-PDK1 (aa 52-556) 3.33 ng/well) and PDKtide (KTFCGTPEYLAPEVRRE […]), synthesised by Pepceuticals Limited, Nottingham, United Kingdom; 25 μM final concentration); His6-PDK1 and PDKtide are together diluted accordingly in assay buffer (50 mM tris pH 7.5, 0.05% β-mercaptoethanol, 10 mM Mg-acetate); PDKtide is present in this mixture as an 83.3 μM solution. These 30 μl are routinely incubated for 30 min at RT. • 3. 20 μL ATP solution (25 μM ATP with 1.0 μCi/well gamma-P33-ATP). The final concentration of Tween 20 is 0.005%.
The reaction is started by adding the ATP solution and the mixture is incubated for 90 min at RT. At the start of the reaction the dishes are shaken gently. The reaction is stopped by the addition of 50 μL/well of 500 mM phosphoric acid (H3PO4) and incubated for about 20 min at RT. The precipitate is transferred by harvesting onto filter plates (96-well microtitre filter plate: UniFilter GF/C; Perkin Elmer; No. 6005174), then washed 6 times with 50 mM H3PO4 and dried at 60° C. Then the plate is stuck down with sealing tape, 25 μL/well of scintillation solution (Microscint 0; Perkin Elmer; No. 6013611) are added and the amount of P33 precipitated is measured using the Wallac Betacounter. The measured data are evaluated using Graphpad Prism software.

Recombinant human PDK1 enzyme (aa 52-556), sequence (O15530 52-556): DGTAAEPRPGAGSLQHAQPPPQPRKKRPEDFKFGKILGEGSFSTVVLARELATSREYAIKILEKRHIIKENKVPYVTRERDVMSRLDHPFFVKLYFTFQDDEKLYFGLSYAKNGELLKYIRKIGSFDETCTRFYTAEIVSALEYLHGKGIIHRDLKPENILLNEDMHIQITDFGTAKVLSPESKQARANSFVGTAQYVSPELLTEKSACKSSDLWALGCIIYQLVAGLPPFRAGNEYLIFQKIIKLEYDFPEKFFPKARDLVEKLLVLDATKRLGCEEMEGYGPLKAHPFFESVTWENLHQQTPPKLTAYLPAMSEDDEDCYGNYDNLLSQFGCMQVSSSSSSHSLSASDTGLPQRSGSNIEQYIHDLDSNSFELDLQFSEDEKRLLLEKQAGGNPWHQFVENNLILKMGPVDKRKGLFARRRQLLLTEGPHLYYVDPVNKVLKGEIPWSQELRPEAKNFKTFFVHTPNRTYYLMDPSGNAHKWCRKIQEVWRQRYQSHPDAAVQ

Structure (SMILES) | IC50
Cc1nc2cnc3ccc(C#CCNC(=O)c4cccn([C@@H](C)c5ccc(F)c(F)c5)c4=O)cc3c2n1C1CCN(C)CC1 [III-6] | 2 nM
O=C(NCC#Cc1ccc2ncc3ncn(C4CCNCC4)c3c2c1)c1cccn([C@H](CO)c2ccccc2)c1=O [III-8] | 2010 nM
CN(C)CCn1cnc2cnc3ccc(C#CCNC(=O)c4cccn(Cc5ccccc5)c4=O)cc3c21 [III-10] | 277 nM
O=C(NCC#Cc1ccc2ncc3ncn(CCO)c3c2c1)c1cccn(Cc2ccc(F)c(F)c2)c1=O [III-11] | 18 nM
O=C(NCC#Cc1ccc2ncc3ncn(CCO)c3c2c1)c1cccn(Cc2ccccc2)c1=O [III-12] | 68 nM
CN1CCC(n2cnc3cnc4ccc(C#CCNC(=O)c5cc(Cl)nn(Cc6ccc(F)c(F)c6)c5=O)cc4c32)CC1 [III-14] | 1 nM
CN1CC[C@@H](n2cnc3cnc4ccc(C#CCNC(=O)c5cccn(Cc6ccc(F)c(F)c6)c5=O)cc4c32)C1 [III-15] | 20 nM
CN1CC[C@H](n2cnc3cnc4ccc(C#CCNC(=O)c5cc(Cl)nn(Cc6ccc(F)c(F)c6)c5=O)cc4c32)C1 [III-16] | 11 nM
CN1CCC[C@@H](n2cnc3cnc4ccc(C#CCNC(=O)c5cc(Cl)nn(Cc6ccc(F)c(F)c6)c5=O)cc4c32)C1 [III-18] | 787 nM
Cc1nc2cnc3ccc(C#CCNC(=O)c4cccn([C@@H](C)c5ccc(F)c(F)c5)c4=O)cc3c2n1[C@H]1CC[C@H](N(C)C)CC1 [III-23] | 1 nM
CN(C)[C@H]1CC[C@@H](n2cnc3cnc4ccc(C#CCNC(=O)c5cccn([C@@H](CO)c6cccc(F)c6)c5=O)cc4c32)CC1 [III-27] | 3 nM
Cc1nc2cnc3ccc(C#CCNC(=O)c4cncn(Cc5ccc(F)c(F)c5)c4=O)cc3c2n1C1CCCOC1 (stereo not drawn) [III-28] | 2 nM
Cc1nc2cnc3ccc(C#CCNC(=O)c4cncn(Cc5ccc(F)c(F)c5)c4=O)cc3c2n1C [III-34] | 8 nM
CCOc1cc(C(=O)NCC#Cc2ccc3ncc4ncn(C(C)C)c4c3c2)c(=O)n(Cc2ccc(F)c(F)c2)n1 [IV-1, 2-(3,4-difluorobenzyl)-6-ethoxy-3-oxo-2,3-dihydro-pyridazine-4-carboxylic acid [3-(1-isopropyl-1H-imidazo[4,5-c]quinolin-8-yl)-prop-2-ynyl]-amide] | 5 nM
CCOc1nc2cnc3ccc(C#CCNC(=O)c4cncn(Cc5ccc(F)c(F)c5)c4=O)cc3c2n1C [V-1, 1-(3,4-difluoro-benzyl)-6-oxo-1,6-dihydro-pyrimidine-5-carboxylic acid [3-(2-ethoxy-1-methyl-1H-imidazo[4,5-c]quinolin-8-yl)-prop-2-ynyl]-amide] | 33 nM
Cn1c(-c2ccccc2)nc2cnc3ccc(C#CCNC(=O)c4cncn(Cc5ccc(F)c(F)c5)c4=O)cc3c21 [V-2] | 72 nM
COCc1nc2cnc3ccc(C#CCNC(=O)c4cncn(Cc5ccc(F)c(F)c5)c4=O)cc3c2n1C [V-7] | 41 nM
CN(C)CCCc1nc2cnc3ccc(C#CCNC(=O)c4cncn(Cc5ccc(F)c(F)c5)c4=O)cc3c2n1C [V-9] | 6 nM

Further compounds by falling IC50, results first:

IC50 | Structure (SMILES)
681 nM | NC[C@@H](c1ccccc1)n1cccc(C(=O)NCC#Cc2ccc3ncc4ncn(C5CCOC5)c4c3c2)c1=O (stereo partly drawn) [III-29]
79 nM | CN(C)Cc1nc2cnc3ccc(C#CCNC(=O)c4cncn(Cc5ccc(F)c(F)c5)c4=O)cc3c2n1C [V-8, 1-(3,4-difluoro-benzyl)-6-oxo-1,6-dihydro-pyrimidine-5-carboxylic acid [3-(2-dimethylaminomethyl-1-methyl-1H-imidazo[4,5-c]quinolin-8-yl)-prop-2-ynyl]-amide]
53 nM | Cc1nc2cnc3ccc(C#CCNC(=O)c4cncn(Cc5ccc(F)c(F)c5)c4=O)cc3c2n1CCN(C)C [III-13]
45 nM | Cc1c(C(=O)NCC#Cc2ccc3ncc4ncn(C5CCN(C(C)C)CC5)c4c3c2)c(=O)n(Cc2ccc(F)c(F)c2)n1C [III-19]
32 nM | CCN1CCC(n2cnc3cnc4ccc(C#CCNC(=O)c5c(C)n(C)n(Cc6ccc(F)c(F)c6)c5=O)cc4c32)CC1 [III-20]
24 nM | COCCc1nc2cnc3ccc(C#CCNC(=O)c4cncn(Cc5ccc(F)c(F)c5)c4=O)cc3c2n1C [V-5, 1-(3,4-difluoro-benzyl)-6-oxo-1,6-dihydro-pyrimidine-5-carboxylic acid {3-[2-(2-methoxy-ethyl)-1-methyl-1H-imidazo[4,5-c]quinolin-8-yl]-prop-2-ynyl}-amide]
22 nM | CN(C)CCc1nc2cnc3ccc(C#CCNC(=O)c4cncn(Cc5ccc(F)c(F)c5)c4=O)cc3c2n1C [V-10]
19 nM | Cn1c(CF)nc2cnc3ccc(C#CCNC(=O)c4cncn(Cc5ccc(F)c(F)c5)c4=O)cc3c21 [V-6, 1-(3,4-difluoro-benzyl)-6-oxo-1,6-dihydro-pyrimidine-5-carboxylic acid [3-(2-fluoromethyl-1-methyl-1H-imidazo[4,5-c]quinolin-8-yl)-prop-2-ynyl]-amide]
18 nM | COc1nc2cnc3ccc(C#CCNC(=O)c4cncn(Cc5ccc(F)c(F)c5)c4=O)cc3c2n1C [V-4]
8 nM | CCc1nc2cnc3ccc(C#CCNC(=O)c4cncn(Cc5ccc(F)c(F)c5)c4=O)cc3c2n1C [V-3]
7 nM | Cc1nc2cnc3ccc(C#CCNC(=O)c4cc(Cl)nn(Cc5ccc(F)c(F)c5)c4=O)cc3c2n1CCc1ccccc1 [III-7]
7 nM | O=C(NCC#Cc1ccc2ncc3ncn(C4CCOC4)c3c2c1)c1cccn([C@@H](CO)c2cccc(F)c2)c1=O (stereo partly drawn) [III-22]
5 nM | Cc1nc2cnc3ccc(C#CCNC(=O)c4c(C)n(C)n(Cc5ccc(F)c(F)c5)c4=O)cc3c2n1C1CCOCC1 [III-21]
5 nM | Cn1cnc2cnc3ccc(C#CCNC(=O)c4cncn(Cc5ccc(F)c(F)c5)c4=O)cc3c21 [III-30]
4 nM | Cc1nc2cnc3ccc(C#CCNC(=O)c4cccn([C@@H](CO)c5cccc(F)c5)c4=O)cc3c2n1[C@H]1CC[C@@H](N(C)C)CC1 [III-25]
3 nM | Cc1nc2cnc3ccc(C#CCNC(=O)c4cccn([C@@H](CO)c5cccc(F)c5)c4=O)cc3c2n1[C@H]1CC[C@H](N(C)C)CC1 [III-24]
2 nM | CC(C)n1cnc2cnc3ccc(C#CCNC(=O)c4cncn(Cc5ccc(F)c(F)c5)c4=O)cc3c21 [III-32]
2 nM | CCn1c(C)nc2cnc3ccc(C#CCNC(=O)c4cncn(Cc5ccc(F)c(F)c5)c4=O)cc3c21 [III-33]
1 nM | Cc1nc2cnc3ccc(C#CCNC(=O)c4cccn([C@@H](C)c5ccc(F)c(F)c5)c4=O)cc3c2n1[C@H]1CC[C@@H](N(C)C)CC1 [III-5]
1 nM | CN(C)[C@H]1CC[C@H](n2cnc3cnc4ccc(C#CCNC(=O)c5cccn([C@@H](CO)c6cccc(F)c6)c5=O)cc4c32)CC1 [III-26]
1 nM | CCn1cnc2cnc3ccc(C#CCNC(=O)c4cncn(Cc5ccc(F)c(F)c5)c4=O)cc3c21 [III-31]
